The source of these data is paper PMC5391474, “Investigation of the Role of Protein Kinase D in Human Rhinovirus Replication” (Journal of Virology, 2017).

Holding throughout (experiment): biochemical
What all share (design): in vitro kinase selectivity panel, protein and lipid kinases, single concentration, ATP at Km
Common to all, as to settings: ATP at Km

For one assay, the target named is SPHK1 (Homo sapiens, UniProt Q9NYA1). As for the experimental part: (§1) CRT0066101 was described previously ([48]) and was purchased for this study from Tocris, with a purity of 99.9%. CRT0066101 (XX-209) and compound XX-050 were synthesized as previously described ([68]). CRT0066051 (Y-095) was also synthesized as previously described ([69]). […] CRT0066101 can also be obtained in larger quantities from Ximbio. Inhibitors were tested in in vitro PKD kinase assays and cellular assays on PANC1 cells as previously described ([48]). The selectivity of the three PKD inhibitors was determined against a panel of protein and lipid kinases by Eurofins and the MRC PPU International Centre for Kinase Profiling (http://www.kinase-screen.mrc.ac.uk), respectively. Each inhibitor was tested at a single concentration of 1 μM and at an ATP concentration equivalent to the Km for each kinase. Having shown that HRV infection appears to activate PKD, we went on to explore the influence of chemical inhibitors of PKD on HRV replication. The compound CRT0066101 is a specific and potent PKD inhibitor that has been used in studies exploring its potential as an anticancer target ([48], [51]). This inhibitor has a 50% inhibitory concentration (IC50) of 1 nM against purified PKD in biochemical assays and a 50% effective concentration (EC50) of 1 μM in a cell-based assay (Table 1). We pretreated HeLa cells with increasing concentrations of the drug for 1 h followed by infection with HRV16. Viral replication was subsequently measured at 6 hpi by quantitative real-time PCR (qRT-PCR) (Fig. 2A) and by Western blotting using an antibody against the viral nonstructural protein 2C (Fig. 2B). […] Furthermore, we tested two novel and structurally different PKD inhibitors (CRT0066051 and XX-050) (Table 1) and confirmed that they too inhibited HRV 2C expression although with different potencies (Fig. 2D). Kinase selectivity profiling of all three PKD inhibitors was performed against a panel of protein and lipid kinases at a drug concentration of 1 μM and at an ATP concentration equivalent to the Km of each kinase (see Table S1 in the supplemental material). […] Since PKD is known to be involved in regulating the architecture of the Golgi apparatus, we confirmed the pharmacodynamic effect of these inhibitors by demon

A further assay deals with T1, PKCγ(h) (Homo sapiens, UniProt P05129).
T1 construct: gene PRKCG
As to the method: as §1

The target in a further assay is T2, PDK1(h) (Homo sapiens, UniProt O15530).
T2 construct: gene PDPK1
T2 sequence (O15530 whole entry): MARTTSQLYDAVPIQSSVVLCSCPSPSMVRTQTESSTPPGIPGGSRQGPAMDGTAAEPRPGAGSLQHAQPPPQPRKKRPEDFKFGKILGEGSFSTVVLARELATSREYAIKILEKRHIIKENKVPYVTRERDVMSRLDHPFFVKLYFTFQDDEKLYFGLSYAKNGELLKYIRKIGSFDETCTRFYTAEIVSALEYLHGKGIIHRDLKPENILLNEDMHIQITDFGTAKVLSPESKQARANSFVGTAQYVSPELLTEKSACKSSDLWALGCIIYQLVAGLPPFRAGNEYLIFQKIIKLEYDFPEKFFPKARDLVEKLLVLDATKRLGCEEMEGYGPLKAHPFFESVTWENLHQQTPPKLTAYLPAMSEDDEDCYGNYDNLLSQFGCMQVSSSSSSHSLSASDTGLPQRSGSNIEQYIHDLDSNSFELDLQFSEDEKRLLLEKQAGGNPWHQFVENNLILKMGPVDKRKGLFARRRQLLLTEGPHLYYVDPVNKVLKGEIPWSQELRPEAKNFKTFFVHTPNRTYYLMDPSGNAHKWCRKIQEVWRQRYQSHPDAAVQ
As to the method:
as §1

The next assay concerns the target Bmx(h) (Homo sapiens, UniProt P51813). As to the method:
as §1

In the next assay the target is T3, ZAP-70(h) (Homo sapiens, UniProt P43403).
T3 construct: gene ZAP70
As for the experimental part:
as §1

For another assay, the target named is T4, Pim-1(h) (Homo sapiens, UniProt P11309).
T4 construct: gene PIM1
As to the method:
as §1

In a further assay the target is T5, PIK4B (Homo sapiens, UniProt Q9UBF8).
T5 construct: gene PI4KB
As for the experimental part:
as §1

For the next assay, the target named is T6, MST3(h) (Homo sapiens, UniProt Q9Y6E0).
T6 construct: gene STK24
As for the experimental part: as §1

Another assay addresses Flt4(h) (Homo sapiens, UniProt P35916). As to the method:
as §1

For the next assay, the target named is T7, BRK(h) (Homo sapiens, UniProt Q13882).
T7 construct: gene PTK6
As to the method:
as §1

For the next assay, the target named is FGFR1(h) (Homo sapiens, UniProt P11362). As for the experimental part:
as §1

Another assay concerns the target HIPK3(h) (Homo sapiens, UniProt Q9H422). As to the method:
as §1

For another assay, the target named is T8, PKCθ(h) (Homo sapiens, UniProt Q04759).
T8 construct: gene PRKCQ
T8 sequence (Q04759 whole entry): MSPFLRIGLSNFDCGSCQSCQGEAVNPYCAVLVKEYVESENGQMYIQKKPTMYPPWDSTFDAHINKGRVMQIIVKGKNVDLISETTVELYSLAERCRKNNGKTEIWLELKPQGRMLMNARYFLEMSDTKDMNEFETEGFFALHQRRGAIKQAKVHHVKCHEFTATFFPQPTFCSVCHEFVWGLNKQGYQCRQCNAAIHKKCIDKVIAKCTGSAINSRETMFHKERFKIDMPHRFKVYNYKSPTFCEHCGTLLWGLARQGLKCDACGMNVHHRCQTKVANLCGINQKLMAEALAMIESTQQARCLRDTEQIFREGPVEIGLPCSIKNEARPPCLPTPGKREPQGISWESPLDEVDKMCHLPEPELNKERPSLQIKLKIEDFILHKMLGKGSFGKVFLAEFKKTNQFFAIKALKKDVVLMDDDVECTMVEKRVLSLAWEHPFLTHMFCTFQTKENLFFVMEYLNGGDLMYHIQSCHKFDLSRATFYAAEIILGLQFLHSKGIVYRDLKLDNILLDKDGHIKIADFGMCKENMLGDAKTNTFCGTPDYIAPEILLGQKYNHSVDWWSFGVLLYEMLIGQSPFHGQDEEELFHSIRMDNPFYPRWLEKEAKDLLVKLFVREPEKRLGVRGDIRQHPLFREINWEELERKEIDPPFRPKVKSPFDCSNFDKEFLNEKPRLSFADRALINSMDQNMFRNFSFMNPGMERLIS
As to the method: as §1

The next assay deals with MELK(h) (Homo sapiens, UniProt Q14680). As for the experimental part:
as §1

For another assay, the target named is EphB4(h) (Homo sapiens, UniProt P54760). As for the experimental part:
as §1

In another assay the target is CDK1/cyclinB(h) (Homo sapiens, UniProt P06493). As for the experimental part:
as §1

A further assay has as its target Hck(h) (Homo sapiens, UniProt P08631). As to the method: as §1
For the next assay, the target named is T9, PKCδ(h) (Homo sapiens, UniProt Q05655).
T9 construct: gene PRKCD
As to the method:
as §1

Chain of FGFR1(h) (P11362 whole entry): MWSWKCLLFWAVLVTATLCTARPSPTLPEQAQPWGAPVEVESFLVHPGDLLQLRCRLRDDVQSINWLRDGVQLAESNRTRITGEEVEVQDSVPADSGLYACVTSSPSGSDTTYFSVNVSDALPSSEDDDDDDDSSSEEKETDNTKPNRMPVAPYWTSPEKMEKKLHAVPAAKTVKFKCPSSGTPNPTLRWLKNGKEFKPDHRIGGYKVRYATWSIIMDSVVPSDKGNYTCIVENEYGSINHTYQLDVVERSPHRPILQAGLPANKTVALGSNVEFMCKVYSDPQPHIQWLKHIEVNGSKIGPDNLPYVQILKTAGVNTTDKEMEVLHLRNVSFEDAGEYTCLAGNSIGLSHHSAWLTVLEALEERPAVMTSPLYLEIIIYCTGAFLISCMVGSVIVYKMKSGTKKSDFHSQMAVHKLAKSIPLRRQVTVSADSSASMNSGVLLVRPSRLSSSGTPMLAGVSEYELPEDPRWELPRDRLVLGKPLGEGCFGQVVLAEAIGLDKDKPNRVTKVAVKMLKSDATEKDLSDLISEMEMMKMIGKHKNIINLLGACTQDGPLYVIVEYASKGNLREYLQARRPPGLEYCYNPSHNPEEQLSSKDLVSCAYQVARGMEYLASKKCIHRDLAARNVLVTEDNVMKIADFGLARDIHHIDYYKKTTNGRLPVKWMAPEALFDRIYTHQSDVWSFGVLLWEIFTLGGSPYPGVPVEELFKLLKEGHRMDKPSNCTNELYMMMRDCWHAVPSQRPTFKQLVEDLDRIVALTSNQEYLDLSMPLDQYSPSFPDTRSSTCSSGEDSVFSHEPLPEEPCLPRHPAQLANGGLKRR
Chain of CDK1/cyclinB(h) (P06493 whole entry): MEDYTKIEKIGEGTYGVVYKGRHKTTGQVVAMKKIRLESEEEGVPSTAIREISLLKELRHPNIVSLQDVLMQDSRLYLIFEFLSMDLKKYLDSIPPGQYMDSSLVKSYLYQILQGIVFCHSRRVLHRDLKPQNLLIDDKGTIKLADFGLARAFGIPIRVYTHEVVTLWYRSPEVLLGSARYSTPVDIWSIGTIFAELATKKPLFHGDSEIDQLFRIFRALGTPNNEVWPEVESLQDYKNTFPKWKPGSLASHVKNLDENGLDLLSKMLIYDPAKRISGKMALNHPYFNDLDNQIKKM
Chain of CDK1/cyclinB(h) (P14635 whole entry partner): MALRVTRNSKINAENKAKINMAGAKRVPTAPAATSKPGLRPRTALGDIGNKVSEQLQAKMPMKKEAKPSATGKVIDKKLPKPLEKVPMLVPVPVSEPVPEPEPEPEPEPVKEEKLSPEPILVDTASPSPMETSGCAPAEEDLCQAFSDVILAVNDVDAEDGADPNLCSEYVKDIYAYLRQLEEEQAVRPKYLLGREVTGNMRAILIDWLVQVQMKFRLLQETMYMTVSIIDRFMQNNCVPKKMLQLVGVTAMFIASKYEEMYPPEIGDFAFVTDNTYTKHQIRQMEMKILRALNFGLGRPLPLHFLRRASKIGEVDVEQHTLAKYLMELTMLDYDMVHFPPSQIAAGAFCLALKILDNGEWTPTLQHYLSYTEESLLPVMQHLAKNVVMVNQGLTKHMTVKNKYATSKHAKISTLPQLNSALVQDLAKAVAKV
Chain of HIPK3(h) (Q9H422 whole entry): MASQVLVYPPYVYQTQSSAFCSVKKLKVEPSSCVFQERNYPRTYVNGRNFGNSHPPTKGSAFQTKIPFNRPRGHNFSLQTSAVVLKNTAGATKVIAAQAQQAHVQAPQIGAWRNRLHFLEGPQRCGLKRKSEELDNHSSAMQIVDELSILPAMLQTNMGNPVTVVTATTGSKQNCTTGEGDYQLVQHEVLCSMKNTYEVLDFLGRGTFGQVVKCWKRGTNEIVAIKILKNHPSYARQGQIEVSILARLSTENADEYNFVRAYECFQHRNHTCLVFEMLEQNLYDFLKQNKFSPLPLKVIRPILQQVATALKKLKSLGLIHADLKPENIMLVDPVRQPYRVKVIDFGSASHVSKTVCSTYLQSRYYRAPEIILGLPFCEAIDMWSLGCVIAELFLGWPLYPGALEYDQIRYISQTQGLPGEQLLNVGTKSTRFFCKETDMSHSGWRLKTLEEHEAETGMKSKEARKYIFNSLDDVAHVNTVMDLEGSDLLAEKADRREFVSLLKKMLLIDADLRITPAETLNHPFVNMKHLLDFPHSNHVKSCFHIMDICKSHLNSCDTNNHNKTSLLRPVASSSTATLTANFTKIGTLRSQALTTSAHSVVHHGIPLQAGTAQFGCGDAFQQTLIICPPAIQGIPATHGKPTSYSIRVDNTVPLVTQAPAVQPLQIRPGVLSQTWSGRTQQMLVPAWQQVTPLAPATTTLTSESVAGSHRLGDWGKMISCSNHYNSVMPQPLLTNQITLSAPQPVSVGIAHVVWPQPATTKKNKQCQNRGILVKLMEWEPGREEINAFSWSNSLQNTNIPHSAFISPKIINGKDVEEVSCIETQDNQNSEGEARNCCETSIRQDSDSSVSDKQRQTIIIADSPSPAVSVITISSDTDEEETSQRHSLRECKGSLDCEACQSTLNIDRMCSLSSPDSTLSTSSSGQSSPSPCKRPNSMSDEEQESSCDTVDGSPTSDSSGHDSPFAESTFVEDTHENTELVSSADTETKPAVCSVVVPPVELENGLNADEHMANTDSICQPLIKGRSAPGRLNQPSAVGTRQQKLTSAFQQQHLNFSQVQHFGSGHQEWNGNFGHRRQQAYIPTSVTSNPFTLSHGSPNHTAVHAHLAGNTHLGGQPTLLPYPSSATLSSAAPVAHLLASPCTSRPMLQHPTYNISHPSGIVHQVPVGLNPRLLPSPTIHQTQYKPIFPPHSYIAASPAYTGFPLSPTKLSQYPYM
Chain of EphB4(h) (P54760 whole entry): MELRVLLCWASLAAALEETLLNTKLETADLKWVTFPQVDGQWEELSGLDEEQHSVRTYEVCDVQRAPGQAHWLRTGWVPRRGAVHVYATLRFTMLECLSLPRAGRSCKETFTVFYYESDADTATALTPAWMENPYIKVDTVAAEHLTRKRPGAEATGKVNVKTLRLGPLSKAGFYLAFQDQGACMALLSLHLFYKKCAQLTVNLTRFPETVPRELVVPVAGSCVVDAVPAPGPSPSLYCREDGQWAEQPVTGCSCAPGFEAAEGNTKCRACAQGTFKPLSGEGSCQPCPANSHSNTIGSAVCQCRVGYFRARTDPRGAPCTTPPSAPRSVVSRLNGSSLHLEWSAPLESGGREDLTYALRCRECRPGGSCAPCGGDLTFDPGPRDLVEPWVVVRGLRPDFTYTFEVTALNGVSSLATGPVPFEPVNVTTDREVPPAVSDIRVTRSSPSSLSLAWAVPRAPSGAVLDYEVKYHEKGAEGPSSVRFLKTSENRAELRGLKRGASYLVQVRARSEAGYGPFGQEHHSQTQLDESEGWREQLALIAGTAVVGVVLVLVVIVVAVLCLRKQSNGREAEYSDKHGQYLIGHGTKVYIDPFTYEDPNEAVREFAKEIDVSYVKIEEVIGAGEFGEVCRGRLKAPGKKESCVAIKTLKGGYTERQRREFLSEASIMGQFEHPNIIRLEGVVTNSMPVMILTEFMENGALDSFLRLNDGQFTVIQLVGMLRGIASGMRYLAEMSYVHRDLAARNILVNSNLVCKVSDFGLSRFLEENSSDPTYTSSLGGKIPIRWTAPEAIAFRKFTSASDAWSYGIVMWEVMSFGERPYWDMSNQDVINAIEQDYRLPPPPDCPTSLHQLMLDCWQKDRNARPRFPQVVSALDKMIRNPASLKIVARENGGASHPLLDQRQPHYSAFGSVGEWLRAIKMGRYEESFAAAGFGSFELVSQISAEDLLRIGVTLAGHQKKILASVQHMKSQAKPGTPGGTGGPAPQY

Consider `CC[C@@H](N)CNc1ccnc(-c2cc(-c3cnn(C)c3)ccc2O)n1` [CRT0066101], for which the inhibition at 1 µM is 19% against SPHK1; 7% against PKCγ(h); -17% against PDK1(h); 26% on Bmx(h); -19% against ZAP-70(h); 98% on Pim-1(h). Further, the inhibition at 1 µM on PIK4B is 33%; against MST3(h), -6%; at Flt4(h) it was 22%; against BRK(h), 17%; against FGFR1(h), -30%; against HIPK3(h), 14%. Moreover, the inhibition at 1 µM turned out to be 6% against PKCθ(h); 55% against MELK(h); 25% against EphB4(h); 63% against CDK1/cyclinB(h); 4% against Hck(h); 28% against PKCδ(h).

One may read the inhibition as the drop in the measured response relative to a control, in per cent.
